Reference: patent US20110223633A1, “METHODS AND REAGENTS FOR ENRICHMENT AND CHARACTERIZATION OF PHOSPHORYLATED BIOMOLECULES” (priority 2008, published 2011)
Where “and” joins values, the source holds several entries; their conditions need not be identical. Identical values can stand only once.

Tested on: lipid droplet (LD) proteins from mouse white adipose tissue (WAT)
Assay: Stoichiometry of LD protein phosphorylation by isotope tagging and enzymatic (BIAP) dephosphorylation after CL316,243 injection
Format: in vivo
Description: Purification of lipid droplets (LD) from mouse white adipose tissue (WAT). All animals were maintained in the Canadian Council on Animal Care (CCAC)-accredited animal facilities of the CHU Ste-Justine Research Center. Two month-old (˜25-29 g BW) male C57BU6J mice, were purchased from Charles River Canada (St. Constant, PQ, Canada), and housed for an additional month at 25° C. in an animal facility with 12:12 h light-dark cycles. During this time, animals were fed ad libitum with 5K chow (˜18% protein, ˜6% fat, ˜5% fiber). […] The homogenate was filtered through a nylon mesh and centrifuged at 17 g for 2 min. Pellet and infranatant were removed and the floating lipid droplets resuspended in 2 ml of the homogenization buffer and centrifuged as above. After the second wash with 50 mM TRIS, pH 7.4, containing 1 M NaCl (Fisher), the LD were snap-frozen and kept at −80° C. until further use.
Extraction of LD proteins and preparation of peptide digests. Purified LD preparations (average wet weight 250 mg) were resuspended in 1 ml of ice-cold acetone, sonicated for 25 sec at 80 W, incubated for 16 h at −20° C. and centrifuged for 10 min at 13,000 g. The supernatants were discharged and pellets were re-extracted twice with ice-cold acetone (1 h each time). After removal of residual acetone under a stream of nitrogen, the protein pellets were re-suspended in 300 μl of a 0.1% sodium 3-[(2-methyl-2-undecyl-1,3-dioxolan-4-yl)methoxyl]-1-propanesulfonate (RapiGest™ SF) in 50 mM NH4HCO3, pH 7.8, containing 5 mM DTT, then sonicated for 10-25 sec and incubated in a boiling bath for 5 min. After 5-min centrifugation at 13,000 g, supernatants were treated for 30 min with IAA in the dark (final concentration 15 mM), and digested overnight with trypsin (Promega, sequencing grade; trypsin to protein ratio 1:50). After digestion, samples were supplemented with TFA (final concentration 0.5%), incubated at 37° C. for 1 h and centrifuged at 13,000 g for 10-min to remove RapiGest™ SF.
Labeling and dephosphorylation of LD peptides. Peptide digests (˜200 μg of protein) were de-salted by the reverse phase chromatography on macro-C18 spin columns (Harvard apparatus) eluted with 70% acetonitrile in water, dried in a SpeedVac™ Concentrator (Savant) and labeled with heavy or light SIMPL (Stable Isotope-containing Multiplex Peptide Labels) isotope tags as described (Fedjaev et al., 2007, supra). After adjusting pH to 8.0 with 500 mM NH4HCO3, samples were supplemented with 3 units of bovine intestinal alkaline phosphatase (BIAP, Sigma, P-5521) and incubated for 3 h at 37° C. BIAP reaction was terminated by addition of concentrated TCA (Sigma) to a final concentration 10%, followed by 1 h incubation on ice and 30-min centrifugation at 13,000 g. Samples containing dephosphorylated peptides were then mixed 1:1 with untreated samples, extracted twice with ethylacetate (Sigma) to remove the excess of unreacted SIMPL labels and analyzed by 2D-LC-MS/MS as described below.
HPLC of peptides on weak anion exchange (WAX) column. Offline WAX HPLC was performed on an Agilent™ 1100 Series liquid chromatography system. Peptides were loaded on C18 (Jupiter™ 4 μm Proteo 90 Å 50×1 mm, Phenomenex) column in 10 mM ammonium acetate containing 10% ACN, and eluted with step gradient of 70% of ACN directly on the WAX (PolySulfoethyl A […] 5 μm 300 Å) column. The column was washed with 10 mM ammonium acetate buffer containing 10% ACN for 10 min and peptides were eluted with 0-100% gradient of 2 M ammonium formate, 10% ACN. […] fractions of 50 μl were collected. Collected fractions were immediately acidified with FA (final concentration 0.2%) and analyzed by LC-MS/MS.
μLC-MS/MS analysis of LD peptides. Peptides were analyzed using a LC-MS/MS instrument consisting of an Agilent™ 1100 Series nanoflow liquid chromatography system and LC/MSD-Trap-SL™ ion trap mass spectrometer (Agilent Technologies, Santa Clara, Calif., USA). […]

Compound: C[C@H](Cc1ccc2c(c1)OC(C(=O)[O-])(C(=O)[O-])O2)NC[C@H](O)c1cccc(Cl)c1.[Na+].[Na+] [CL316,243, disodium 5-[(2R)-2-[[(2R)-2-(3-Chlorophenyl)-2-hydroxyethyl]amino]propyl]-1,3-benzodioxole-2,2-dicarboxylate]
- Mean isotope ratio Treated, peptide KLLVSSEDYGR (Alpha II spectrin, LD from WAT, 1 mg/kg i.p., 15 min): 3.47
- Ratio Treated, peptide SSEEIESAFR (Alpha-II spectrin, z 2, m/z 668.3, LD from WAT of treated mice): 0.64(2)
- Ratio Treated, peptide DLTNVQNLQK (Alpha-II spectrin, z 2, m/z 674.3, LD from WAT of treated mice): 0.98(1)
- Ratio Treated, peptide SQLLGSAHEVQR (Alpha-II spectrin, z 2, m/z 750.4, LD from WAT of treated mice): 1.05(4)
- Ratio Treated, peptide DTEQVDNWMSK (Alpha-II spectrin, z 2, m/z 764.7, LD from WAT of treated mice): 1.03(1)
- Ratio Treated, peptide TKQDEVNAAWQR (Alpha-II spectrin, z 2, m/z 813.4, LD from WAT of treated mice): 0.84(1)
- Ratio Treated, peptide EANELQQWITEK (Alpha-II spectrin, z 2, m/z 832.4, LD from WAT of treated mice): 1.1(3)
- Ratio Treated, peptide MQHNLEQQIQAR (Alpha-II spectrin, z 2, m/z 835.9, LD from WAT of treated mice): 0.94(3)
- Ratio Treated, peptide HQAFEAELSANQSR (Alpha-II spectrin, z 2, m/z 881.9, LD from WAT of treated mice): 1.24(2)
- Ratio Treated, peptide LIQEQHPEEELIK (Alpha-II spectrin, z 2, m/z 891.5, LD from WAT of treated mice): 1.09(4)
- Ratio Treated, peptide HQAFEAELHANADR (Alpha-II spectrin, z 2, m/z 892.5, LD from WAT of treated mice): 0.84(3)
- Ratio Treated, peptide HQLLEADISAHEDR (Alpha-II spectrin, z 2, m/z 908.1, LD from WAT of treated mice): 1.04(2)
- Ratio Treated, peptide GNAMVEEGHFAAEDVK (Alpha-II spectrin, z 2, m/z 940, LD from WAT of treated mice): 1.1(2)
- Ratio Treated, peptide AQLADSFHLQQFFR (Alpha-II spectrin, z 2, m/z 945, LD from WAT of treated mice): 1.04(1)
- Ratio Treated, peptide LSDDNTIGQEEIQQR (Alpha-II spectrin, z 2, m/z 961.3, LD from WAT of treated mice): 1.25(1)
- Ratio Treated, peptide DLAALGDKVNSLGETAQR (Alpha-II spectrin, z 2, m/z 1020, LD from WAT of treated mice): 1.29(1)
- Ratio Treated, peptide SSLSSAQADFNQLAELDR (Alpha-II spectrin, z 2, m/z 1064, LD from WAT of treated mice): 0.99(3)
- Ratio Treated, peptide SADESGQALLAASHYASDEVR (Alpha-II spectrin, z 2, m/z 1177, LD from WAT of treated mice): 1.14(3)
- Ratio Treated, peptide NQALNTDNYGHDLASVQALQR (Alpha-II spectrin, z 2, m/z 1253, LD from WAT of treated mice): 0.91(3)
- Ratio Treated, peptide HQAFEAELHANADR (Alpha-II spectrin, z 3, m/z 597.6, LD from WAT of treated mice): 0.81(1)
- Ratio Treated, peptide SADESGQALLAASHYASDEVR (Alpha-II spectrin, z 3, m/z 785, LD from WAT of treated mice): 1.1(3)
- Mean isotope ratio Treated, peptide THVDSLR (Apolipoprotein A-I, BIAP-treated/untreated, LD from WAT, 1 mg/kg i.p., 15 min): −1.12
- Ratio Treated, peptide (K)VQPYLDEFQK(K) (Apolipoprotein A-I, z 2, m/z 721.2, LD from WAT of treated mice): 0.97(2)
- Ratio Treated, peptide (R)TQLAPHSEQMR(E) (Apolipoprotein A-I, z 2, m/z 736.9, LD from WAT of treated mice): 0.99(1)
- Ratio Treated, peptide (K)SNPTLNEYHTR(A) (Apolipoprotein A-I, z 2, m/z 753.9, LD from WAT of treated mice): 1(4)
- share of HSL peptide SVSEAALAQPEGLLGTDTLKK phosphorylated (LD of stimulated adipocytes): ~80%
- Mean isotope ratio Treated, peptide SVSEAALAQPEGLLGTDTLK (Lipase, hormone sensitive, LD from WAT, 1 mg/kg i.p., 15 min): 5.1
- Ratio Treated, peptide (R)LILTPPAAPLN(—) (Lipase, hormone sensitive, z 2, m/z 647.8, LD from WAT of treated mice): 0.78(1)
- Ratio Treated, peptide (R)AAFPEGFHPR(R) (Lipase, hormone sensitive, z 2, m/z 652.3, LD from WAT of treated mice): 1.14(2)
- Ratio Treated, peptide (R)QATEFCVQR(I) (Lipase, hormone sensitive, z 2, m/z 657.2, LD from WAT of treated mice): 1.01(3)
- Ratio Treated, peptide (K)HCDLLGSTGER(I) (Lipase, hormone sensitive, z 2, m/z 710.3, LD from WAT of treated mice): 1(4)
- Ratio Treated, peptide (K)CVSAYSGTEAEDHFDSDQK(A) (Lipase, hormone sensitive, z 2, m/z 1164, LD from WAT of treated mice): 1.08(1)
- Ratio Treated, peptide (K)CVSAYSGTEAEDHFDSDQK(A) (Lipase, hormone sensitive, z 3, m/z 774.6, LD from WAT of treated mice): 0.92(1)
- Mean isotope ratio Treated, peptide FVEGLPINDFSR(E) (Malate dehydrogenase, cytoplasmic, LD from WAT, 1 mg/kg i.p., 15 min): 3.08
- Ratio Treated, peptide (K)GEFITTVQQR(G) (Malate dehydrogenase, cytoplasmic, z 2, m/z 677.3, LD from WAT of treated mice): 1.18(2)
- Mean isotope ratio Treated, peptide GLSAPSCPNGLDDK (Perilipin, LD from WAT, 1 mg/kg i.p., 15 min): 1.4
- Mean isotope ratio Treated, peptide LSLMEPESEFRDIDNPSAEAER (Perilipin, LD from WAT, 1 mg/kg i.p., 15 min, 1 mg/kg): 1.6 and 1.63
- Ratio Treated, peptide GLDHLEEK (Perilipin, z 2, m/z 558.3, LD from WAT of treated mice): 1.05(4)
- Ratio Treated, peptide EVTALPNPR (Perilipin, z 2, m/z 587.2, LD from WAT of treated mice): 1.1(4)
- Ratio Treated, peptide ETAEYAANTR (Perilipin, z 2, m/z 650.7, LD from WAT of treated mice): 0.71(1)
- Ratio Treated, peptide IPALQYPPEK (Perilipin, z 2, m/z 665.5, LD from WAT of treated mice): 1.01(4)
- Ratio Treated, peptide EAHPLVASVCNAYEK (Perilipin, z 2, m/z 932, LD from WAT of treated mice): 1.06(4)
- Ratio Treated, peptide VLQLPWSGTCECFQK (Perilipin, z 2, m/z 1020, LD from WAT of treated mice): 0.98(4)
- Ratio Treated, peptide GVQGASNLAAWSMEPVVR (Perilipin, z 2, m/z 1024, LD from WAT of treated mice): 1(2)
- Ratio Treated, peptide GVTDNVVDTVVHYVPLPR (Perilipin, z 2, m/z 1078, LD from WAT of treated mice): 0.93(3)
- Ratio Treated, peptide GPTLLDGDLPEQENVLQR (Perilipin, z 2, m/z 1085, LD from WAT of treated mice): 1.05(4)
- Ratio Treated, peptide VLQLPWSGTCECFQK (Perilipin, z 3, m/z 680.8, LD from WAT of treated mice): 1.17(2)
- Ratio Treated, peptide GVQGASNLAAWSMEPVVR (Perilipin, z 3, m/z 683, LD from WAT of treated mice): 1(2)
- Ratio Treated, peptide VVEFLLPPDKESAPSSGR (Perilipin, z 3, m/z 701.8, LD from WAT of treated mice): 1.11(4)
- Ratio Treated, peptide GVTDNVVDTVVHYVPLPR (Perilipin, z 3, m/z 719.3, LD from WAT of treated mice): 1(3)
- Ratio Treated, peptide GPTLLDGDLPEQENVLQR (Perilipin, z 3, m/z 723.9, LD from WAT of treated mice): 1.01(4)
- Mean isotope ratio Treated, peptide SHDTTSNTLTQLLAK (Protein kinase C delta binding protein, LD from WAT, 1 mg/kg i.p., 15 min): 1.11
- Ratio Treated, peptide (R)LEANHGLLVAR(G) (Protein kinase C delta binding protein, z 2, m/z 684.4, LD from WAT of treated mice): 0.94(2)
- Ratio Treated, peptide (K)EDPEKPVLQIESAA(—) (Protein kinase C delta binding protein, z 2, m/z 854.9, LD from WAT of treated mice): 0.74(1)
